We go through nine compounds from patent US20250114374A1, “BCL-2 INHIBITORS” (Newave Pharmaceutical Inc., priority 2021, published 2025).

Structures are written as SMILES. Where two headings read alike, the source gives them in different places.

The conditions of data set [1]: cited from earlier work.
In data set [2] the test system is cells from lymphoma and small-cell lung carcinoma lines, primary patient-derived cells. Particulars: single agent; cited from earlier work.
The test system of data set [3] is xenograft models of small-cell lung cancer and acute lymphoblastic leukemia. Conditions: oral administration, alone; cited from earlier work.
The subject of the next data set is circulating platelets. Particulars: cited from earlier work.
In another data set the target is T1, Bcl-w (Homo sapiens, UniProt Q92843).
T1 sequence (Q92843 1-193): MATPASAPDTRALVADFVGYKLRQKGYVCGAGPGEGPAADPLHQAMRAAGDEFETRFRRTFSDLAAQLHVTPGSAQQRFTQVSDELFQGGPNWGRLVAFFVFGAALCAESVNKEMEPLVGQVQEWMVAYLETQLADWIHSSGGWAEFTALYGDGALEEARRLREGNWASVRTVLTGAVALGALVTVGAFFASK
Particulars: cited from earlier work.

Data set [4] has as its system CLL who have 17p deletion. Conditions: Human Phase I and II, CLL with 17p deletion; cited from earlier work.
A further data set relates to RS4; 11 cells. Particulars: cited from earlier work.
The target in a further data set is Mcl-1 (Homo sapiens, UniProt Q07820). Particulars: cited from earlier work.
The subject of data set [5] is DoHH2, Granta-519 xenografts. Conditions: single agent or in combination with Bendamustine and other agents; cited from earlier work.
A further data set concerns RS4; 11 xenografts. Particulars: single dose of 100 mg/kg; cited from earlier work.
The next data set relates to CLL. Particulars: read-out: average EC50, apoptosis; cited from earlier work.
Data set [6] relates to RS4; 11 with G101V mutation. In words: In vitro anti-proliferation assay (ATPlite luminescence) in BCL-2-dependent ALL cell line RS4;11 with G101V mutation. The data set is classed as cell-based. Particulars: read-out: RS411-G101V IC50. Put shortly: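 IC50 came from luminescent ATP quantification (ATPlite) following cell lysis. Compound dose ranges were applied for roughly 72 h to about 1×10^4 G101V-mutant RS4;11 cells per well, in 10% FBS medium.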
Background: ATP-based viability assays read luminescence as a measure of living cells.

Where [7] appears, read: cellular anti-proliferative IC50, about 72 hours, medium with 10% FBS, ATPlite.

Sequence of Mcl-1 (Q07820 whole entry): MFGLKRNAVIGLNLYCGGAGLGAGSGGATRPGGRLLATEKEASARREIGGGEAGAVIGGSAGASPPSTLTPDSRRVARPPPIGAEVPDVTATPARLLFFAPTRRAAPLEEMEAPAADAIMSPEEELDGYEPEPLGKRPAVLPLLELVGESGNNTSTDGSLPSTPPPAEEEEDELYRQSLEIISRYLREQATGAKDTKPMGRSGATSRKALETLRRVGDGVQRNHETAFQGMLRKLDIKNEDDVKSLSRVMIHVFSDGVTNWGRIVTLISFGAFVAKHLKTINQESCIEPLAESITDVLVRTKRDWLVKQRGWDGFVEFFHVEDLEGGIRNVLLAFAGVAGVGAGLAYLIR

Take `CN(C)CC[C@H](CSc1ccccc1)Nc1ccc(S(=O)(=O)NC(=O)c2ccc(N3CCN(Cc4ccccc4-c4ccc(Cl)cc4)CC3)cc2)cc1[N+](=O)[O-]` [ABT-737]: in data set [1], the aqueous solubility result was “low”. Moreover, the cell killing entry in data set [2] is listed as “single-agent-mechanism-based killing”.
The Ki is the dissociation constant of the complex between target and ligand, obtained from inhibition or displacement. With `CC1(C)CCC(c2ccc(Cl)cc2)=C(CN2CCN(c3ccc(C(=O)NS(=O)(=O)c4ccc(N[C@H](CCN5CCOCC5)CSc5ccccc5)c(S(=O)(=O)C(F)(F)F)c4)cc3)CC2)C1` [ABT-263], the tumor regression result in data set [3] is “complete tumor regressions”. Besides, the “number of circulating platelets” value in the data set with circulating platelets (clinical trial) is “rapid, concentration-dependent decrease”. Besides, in the data set on circulating platelets (single-agent treatment in patients), the dose-limiting toxicity entry was “thrombocytopenia”. For the same compound, the Ki on Bcl-w is no more than 1 nM.
What is called EC50 is the midpoint of the concentration-response curve. One may read the IC50 as the concentration at which inhibition is half-maximal. Consider `CC1(C)CCC(CN2CCN(c3ccc(C(=O)NS(=O)(=O)c4ccc(NCC5CCOCC5)c([N+](=O)[O-])c4)c(Oc4cnc5[nH]ccc5c4)c3)CC2)=C(c2ccc(Cl)cc2)C1` [ABT-199], for which the clinical efficacy entry in data set [4] is on record as “highly efficacious”. In the data set with RS4; 11 cells (RS4, 11 cells), the EC50 is 8 nM. The “apoptosis in RS4; 11 cells” value in the data set on RS4; 11 cells (cytochrome c release, caspase activation, accumulation of sub-G0/G1 DNA) is listed as “rapid apoptosis”. Also, the “activity to Mcl-1” value at Mcl-1 is “no activity”. The xenograft growth entry in [5] is “inhibits xenograft growth”. In the data set on RS4; 11 xenografts, the “maximal tumor growth inhibition” value is reported as 95% and the tumor growth delay is reported as 152%. Also, the EC50 in the data set on CLL is 3 nM. In addition, the IC50 in data set [6] (Homo sapiens, RS4-11, 72 h) is 783 nM.
On to `CC(C)Oc1ccccc1[C@@H]1CN(Cc2ccc(C#N)nc2)CCN1C1CC2(CCN(c3ccc(C(=O)NS(=O)(=O)c4cc5c(c([N+](=O)[O-])c4)N[C@H](C4CCOCC4)CO5)c(N4c5cc6cc[nH]c6nc5O[C@H]5COCC[C@@H]54)c3)CC2)C1` [Example 262, 4-{2-[(2R)-4-[(6-cyanopyridin-3-yl)methyl]-2-(2-isopropoxyphenyl)piperazin-1-yl]-7-azaspiro[3.5]nonan-7-yl}-2-[(3R,8S)-2,5-dioxa-9,15,17-triazatetracyclo[8.7.0.0^{3,8}.0^{12,16}]heptadeca-1(10),11,13,16-tetraen-9-yl]-N-[(3R)-5-nitro-3-(oxan-4-yl)-3,4-dihydro-2H-1,4-benzoxazin-7-ylsulfonyl]benzamide], for which the IC50 in data set [6] (setting [7]) was 6.43 nM.
`Cc1ccccc1[C@@H]1CN([C@H]2CCCOC2)CCN1C1CC2(CCN(c3ccc(C(=O)NS(=O)(=O)c4cc5c(c([N+](=O)[O-])c4)N[C@H](C4CCOCC4)CO5)c(N4c5cc6cc[nH]c6nc5O[C@H]5COCC[C@@H]54)c3)CC2)C1` [Example 179, N—(((R)-5-nitro-3-(tetrahydro-2H-pyran-4-yl)-3,4-dihydro-2H-benzo[b][1,4]oxazin-7-yl)sulfonyl)-2-((5aS,9aR)-6,7,9,9a-tetrahydro-1H-pyrano[3,4-b]pyrrolo[3′,2′:5,6]pyrido[3,2-e][1,4]oxazin-5(5aH)-yl)-4-(2-((R)-4-((S)-tetrahydro-2H-pyran-3-yl)-2-(o-tolyl)piperazin-1-yl)-7-azaspiro[3.5]nonan-7-yl)benzamide]: the IC50 in data set [6] (Homo sapiens, RS4-11, 72 h) stood at 31.2 nM.
As for `COc1cc(CN2CCN(C3CC4(CCN(c5ccc(C(=O)NS(=O)(=O)c6ccc(NCC7CCC(C)(O)CC7)c([N+](=O)[O-])c6)c(N6c7cc8cc[nH]c8nc7O[C@H]7COCC[C@@H]76)c5)CC4)C3)[C@H](c3ccccc3C)C2)cnc1N1CCOCC1` (stereo partly drawn) [Example 124, N-((4-((((1r,4r)-4-hydroxy-4-methylcyclohexyl)methyl)amino)-3-nitrophenyl)sulfonyl)-4-(2-((R)-4-((5-(methoxy-d3)-6-morpholinopyridin-3-yl)methyl)-2-(o-tolyl)piperazin-1-yl)-7-azaspiro[3.5]nonan-7-yl)-2-((5aS,9aR)-6,7,9,9a-tetrahydro-1H-pyrano[3,4-b]pyrrolo[3′,2′:5,6]pyrido[3,2-e][1,4]oxazin-5(5aH)-yl)benzamide], the IC50 in data set [6] (setting [7]) was found to be 2 nM.
As for `COc1cc(CN2CCN(C3CC4(CCN(c5ccc(C(=O)NS(=O)(=O)c6cc7c(c([N+](=O)[O-])c6)N[C@H](C6CCOCC6)CO7)c(N6c7cc8cc[nH]c8nc7O[C@H]7COCC[C@@H]76)c5)CC4)C3)[C@H](c3ccccc3C)C2)cnc1N1CCOCC1` [Example 143, 4-(2-((R)-4-((5-methoxy-6-morpholinopyridin-3-yl)methyl)-2-(o-tolyl)piperazin-1-yl)-7-azaspiro[3.5]nonan-7-yl)-N-(((R)-5-nitro-3-(tetrahydro-2H-pyran-4-yl)-3,4-dihydro-2H-benzo[b][1,4]oxazin-7-yl)sulfonyl)-2-((5aS,9aR)-6,7,9,9a-tetrahydro-1H-pyrano[3,4-b]pyrrolo[3′,2′:5,6]pyrido[3,2-e][1,4]oxazin-5(5aH)-yl)benzamide], the IC50 in data set [6] (Homo sapiens, RS4-11, 72 h) is 7 nM.
For `CC(C)Oc1ccccc1[C@@H]1CN(Cc2ccc(N3CCOC[C@@H]3C)nc2)CCN1C1CC2(CCN(c3ccc(C(=O)NS(=O)(=O)c4cc5c(c([N+](=O)[O-])c4)N[C@H](C4CCOCC4)CO5)c(N4c5cc6cc[nH]c6nc5O[C@H]5COCC[C@@H]54)c3)CC2)C1` [Example 260, 2-[(3R,8S)-2,5-dioxa-9,15,17-triazatetracyclo[8.7.0.0^{3,8}.0^{12,16}]heptadeca-1(10),11,13,16-tetraen-9-yl]-4-{2-[(2R)-2-(2-isopropoxyphenyl)-4-({6-[(3S)-3-methylmorpholin-4-yl]pyridin-3-yl}methyl)piperazin-1-yl]-7-azaspiro[3.5]nonan-7-yl}-N-[(3R)-5-nitro-3-(oxan-4-yl)-3,4-dihydro-2H-1,4-benzoxazin-7-ylsulfonyl]benzamide], the IC50 in data set [6] (setting [7]) came out at 8.65 nM.
On to `CC(C)Oc1ccccc1[C@@H]1CN([C@H]2COCc3c2ccc(F)c3F)CCN1C1CC2(CCN(c3ccc(C(=O)NS(=O)(=O)c4cc5c(c([N+](=O)[O-])c4)N[C@H](C4CCOCC4)CO5)c(N4c5cc6cc[nH]c6nc5O[C@H]5COCC[C@@H]54)c3)CC2)C1` [Example 249, 4-{2-[(2R)-4-[(4R)-7,8-difluoro-3,4-dihydro-1H-2-benzopyran-4-yl]-2-(2-isopropoxyphenyl)piperazin-1-yl]-7-azaspiro[3.5]nonan-7-yl}-2-[(3R,8S)-2,5-dioxa-9,15,17-triazatetracyclo[8.7.0.0^{3,8}.0^{12,16}]heptadeca-1(10),11,13,16-tetraen-9-yl]-N-[(3R)-5-nitro-3-(oxan-4-yl)-3,4-dihydro-2H-1,4-benzoxazin-7-ylsulfonyl]benzamide], for which, in data set [6] (setting [7]), the IC50 worked out at 12 nM.
